Here are results for 12 compounds from patent US11034718B2, “C-3 novel triterpenone with C-17 reverse amide derivatives as HIV inhibitors” (HETERO LABS LIMITED, priority 2015, dated 2021).

A word on the IC50: it is the concentration that inhibits the measured activity by half.

SMILES strings stand for the structures. Where a name gives a salt, the structure may show the parent alone. Read-outs that look alike come from different tables or passages of the source.

The test system of the experiment is HIV-1 strain 92HT599. Description: Antiviral activity against HIV-1 strain 92HT599 in MT2 cells (p24 estimation). The format is cell-based. The settings on record: HIV-1 92HT599, ~96 hours. Here is the method: Example 77: Evaluation of Compounds Antiviral Activity Against HIV-1 Strain 92HT599 in MT2 Cells
MT2 cells were infected with HIV-1 strain 92HT599 (10 TCID 50/30000 cells). The infected cells were plated at the concentration of 30,000 cells per well in 96 well plate. Test compound was added to the micro plate in defined format with the final concentration of DMSO (vehicle) is not more than 1%. Incubation was carried out in CO2 incubator for ˜96 hours for viral infection. At the end of incubation period an aliquot from each well was taken for p24 estimation. The quantitation of p24 is an index for antiviral activity of the compound. Percent inhibition was calculated with reference to control values (vehicle controls). p24 estimation was carried out using Advance biosciences kit as per the procedure detailed by supplier.

[1] abbreviates: Human immunodeficiency virus 1, 0% serum binding assay, read-out: IC50 0% serum.
[2] abbreviates: Human immunodeficiency virus 1, 40% serum binding assay, read-out: IC50 40% serum.

Turning to `Cc1ccc(-c2nc3cc(C(=O)NC(C)(C)C(=O)N[C@@]45CC[C@]6(C)[C@H](CC[C@@H]7[C@@]8(C)CC[C@H](OC(=O)[C@H]9C[C@@H](C(=O)O)C9(C)C)C(C)(C)[C@@H]8CC[C@]76C)C4=C(C(C)C)C(=O)C5)ccc3[nH]2)cn1` [Example 13, (1R,3S)-3-((((3aR,5aR,5bR,7aR,9S,11aR,11bR,13aS)-1-isopropyl-5a,5b,8,8,11a-pentamethyl-3a-(2-methyl-2-(2-(6-methylpyridin-3-yl)-1H-benzo[d]imidazole-5-carboxamido)propanamido)-2-oxo-3,3a,4,5,5a,5b,6,7,7a,8,9,10,11,11a,11b,12,13,13a-octadecahydro-2H-cyclopenta[a]chrysen-9-yl)oxy)carbonyl)-2,2-dimethylcyclobutane-1-carboxylic acid], the IC50 reads like this: under setting [1], less than 3 nM; under setting [2], less than 50 nM.
For `CC(C)C1=C2[C@H]3CC[C@@H]4[C@@]5(C)CC[C@H](OC(=O)[C@H]6C[C@@H](C(=O)O)C6(C)C)C(C)(C)[C@@H]5CC[C@@]4(C)[C@]3(C)CC[C@@]2(NC(=O)C(C)(C)NCCN(C)C)CC1=O` [Example 73, (1R,3S)-3-((((3aR,5aR,5bR,7aR,9S,11aR,11bR,13aS)-3a-(2-((2-(dimethylamino)ethyl)amino)-2-methylpropanamido)-1-isopropyl-5a,5b,8,8,11a-pentamethyl-2-oxo-3,3a,4,5,5a,5b,6,7,7a,8,9,10,11,11a,11b,12,13,13a-octadecahydro-2H-cyclopenta[a]chrysen-9-yl)oxy)carbonyl)-2,2-dimethylcyclobutane-1-carboxylic acid] the same measures were less than 3 nM and less than 50 nM.
On the same counts, the results for `CC(C)C1=C2[C@H]3CC[C@@H]4[C@@]5(C)CC[C@H](OC(=O)[C@H]6C[C@@H](C(=O)O)C6(C)C)C(C)(C)[C@@H]5CC[C@@]4(C)[C@]3(C)CC[C@@]2(NC(=O)C(C)(C)NC(=O)[C@@H]2CCCN2)CC1=O` [Example 76, (1R,3S)-3-((((3aR,5aR,5bR,7aR,9S,11aR,11bR,13aS)-1-isopropyl-5a,5b,8,8,11a-pentamethyl-3a-(2-methyl-2-((S)-pyrrolidine-2-carboxamido)propanamido)-2-oxo-3,3a,4,5,5a,5b,6,7,7a,8,9,10,11,11a,11b,12,13,13a-octadecahydro-2H-cyclopenta[a]chrysen-9-yl)oxy)carbonyl)-2,2-dimethylcyclobutane-1-carboxylic acid hydrochloride] are less than 3 nM and 50 to 200 nM.
For `CC(C)C1=C2[C@H]3CC[C@@H]4[C@@]5(C)CC[C@H](OC(=O)[C@H]6C[C@@H](C(=O)O)C6(C)C)C(C)(C)[C@@H]5CC[C@@]4(C)[C@]3(C)CC[C@@]2(NC(=O)C(C)(C)NC(=O)c2ccc(F)cc2)CC1=O` [Example 22, (1R,3S)-3-((((3aR,5aR,5bR,7aR,9S,11aR,11bR,13aS)-3a-(2-(4-fluorobenzamido)-2-methylpropanamido)-1-isopropyl-5a,5b,8,8,11a-pentamethyl-2-oxo-3,3a, 4,5,5a,5b,6,7,7a,8,9,10,11,11a,11b,12,13,13a-octadecahydro-2H-cyclopenta[a]chrysen-9-yl)oxy)carbonyl)-2,2-dimethylcyclobutane-1-carboxylic acid] the same measures were less than 3 nM and less than 50 nM.
On to `CC(C)C1=C2[C@H]3CC[C@@H]4[C@@]5(C)CC[C@H](OC(=O)[C@H]6C[C@@H](C(=O)O)C6(C)C)C(C)(C)[C@@H]5CC[C@@]4(C)[C@]3(C)CC[C@@]2(NC(=O)C(C)(C)NC(=O)C2(c3ccc(Cl)cc3)CC2)CC1=O` [Example 2, (1R,3S)-3-((((3aR,5aR,5bR,7aR,9S,11aR,11bR,13aS)-3a-(2-(1-(4-chlorophenyl)cyclopropane-1-carboxamido)-2-methylpropanamido)-1-isopropyl-5a,5b,8,8,11a-pentamethyl-2-oxo-3,3a,4,5,5a,5b,6,7,7a,8,9,10,11,11a,11b,12,13,13a-octadecahydro-2H-cyclopenta[a]chrysen-9-yl)oxy)carbonyl)-2,2-dimethylcyclobutane-1-carboxylic acid], for which the IC50 runs as follows: under setting [1], 3.01 to 10 nM; under setting [2], less than 50 nM.
On the same counts, the results for `CC(C)C1=C2[C@H]3CC[C@@H]4[C@@]5(C)CC[C@H](OC(=O)[C@H]6C[C@@H](C(=O)O)C6(C)C)C(C)(C)[C@@H]5CC[C@@]4(C)[C@]3(C)CC[C@@]2(NC(=O)C(C)(C)NC(=O)CN2CCCCC2)CC1=O` [Example 10, (1R,3S)-3-((((3aR,5aR,5bR,7aR,9S,11aR,11bR,13aS)-1-isopropyl-5a,5b,8,8,11a-pentamethyl-3a-(2-methyl-2-(2-(piperidin-1-yl)acetamido)propan amido)-2-oxo-3,3a,4,5,5a,5b,6,7,7a,8,9,10,11,11a,11b,12,13,13a-octadecahydro-2H-cyclopenta[a]chrysen-9-yl)oxy)carbonyl)-2,2-dimethylcyclobutane-1-carboxylic acid] are less than 3 nM and less than 50 nM.
With `CC(C)C1=C2[C@H]3CC[C@@H]4[C@@]5(C)CC[C@H](OC(=O)[C@H]6C[C@@H](C(=O)O)C6(C)C)C(C)(C)[C@@H]5CC[C@@]4(C)[C@]3(C)CC[C@@]2(NC(=O)C(C)(C)NC(=O)[C@@H](N)C(C)C)CC1=O` [Example 36, (1R,3S)-3-((((3aR,5aR,5bR,7aR,9S,11aR,11bR,13aS)-3a-(2-((S)-2-amino-3-methylbutanamido)-2-methylpropanamido)-1-isopropyl-5a,5b,8,8,11a-pentamethyl-2-oxo-3,3a,4,5,5a,5b,6,7,7a,8,9,10,11,11a,11b,12,13,13a-octadecahydro-2H-cyclopenta[a]chrysen-9-yl)oxy)carbonyl)-2,2-dimethylcyclobutane-1-carboxylic acid hydrochloride], the IC50 reads like this: under setting [1], less than 3 nM; under setting [2], 50 to 200 nM.
On to `CC(C)C1=C2[C@H]3CC[C@@H]4[C@@]5(C)CC[C@H](OC(=O)[C@H]6C[C@@H](C(=O)O)C6(C)C)C(C)(C)[C@@H]5CC[C@@]4(C)[C@]3(C)CC[C@@]2(NC(=O)C(C)(C)NCc2ccc(Cl)cc2)CC1=O` [Example 68], for which the IC50 was 3.01 to 10 nM under setting [1] and less than 50 nM under setting [2].
For `CC(C)C1=C2[C@H]3CC[C@@H]4[C@@]5(C)CC[C@H](OC(=O)[C@H]6C[C@@H](C(=O)O)C6(C)C)C(C)(C)[C@@H]5CC[C@@]4(C)[C@]3(C)CC[C@@]2(NC(=O)C2(NC(=O)c3ccc(Cl)cc3)CCCC2)CC1=O` [Example 46, (1R,3S)-3-((((3aR,5aR,5bR,7aR,9S,11aR,11bR,13aS)-3a-(1-(4-chlorobenzamido)cyclopentane-1-carboxamido)-1-isopropyl-5a,5b,8,8,11a-pentamethyl-2-oxo-3,3a,4,5,5a,5b,6,7,7a,8,9,10,11,11a,11b,12,13,13a-octadecahydro-2H-cyclopenta[a]chrysen-9-yl)oxy)carbonyl)-2,2-dimethylcyclobutane-1-carboxylic acid] the same measures were less than 3 nM and less than 50 nM.
Consider `CC(C)C1=C2[C@H]3CC[C@@H]4[C@@]5(C)CC[C@H](OC(=O)[C@H]6C[C@@H](C(=O)O)C6(C)C)C(C)(C)[C@@H]5CC[C@@]4(C)[C@]3(C)CC[C@@]2(NC(=O)C(C)(C)NC(=O)C2CCNCC2)CC1=O` [Example 35, (1R,3S)-3-((((3aR,5aR,5bR,7aR,9S,11aR,11bR,13aS)-1-isopropyl-5a,5b,8,8,11a-pentamethyl-3a-(2-methyl-2-(piperidine-4-carboxamido)propanamido)-2-oxo-3,3a,4,5,5a,5b,6,7,7a,8,9,10,11,11a,11b,12,13,13a-octadecahydro-2H-cyclopenta[a]chrysen-9-yl)oxy)carbonyl)-2,2-dimethylcyclobutane-1-carboxylic acid hydrochloride], for which the IC50 reads like this: under setting [1], more than 10 nM; under setting [2], more than 200 nM.
For `CC(C)C1=C2[C@H]3CC[C@@H]4[C@@]5(C)CC[C@H](OC(=O)[C@H]6C[C@@H](C(=O)O)C6(C)C)C(C)(C)[C@@H]5CC[C@@]4(C)[C@]3(C)CC[C@@]2(NC(=O)C(C)(C)NC(=O)c2ccoc2)CC1=O` [Example 24, (1R,3S)-3-((((3aR,5aR,5bR,7aR,9S,11aR,11bR,13aS)-3a-(2-(furan-3-carboxamido)-2-methylpropanamido)-1-isopropyl-5a,5b, 8,8,11a-pentamethyl-2-oxo-3,3a,4,5,5a,5b,6,7,7a,8,9,10,11,11a,11b,12,13,13a-octadecahydro-2H-cyclopenta[a]chrysen-9-yl)oxy)carbonyl)-2,2-dimethylcyclobutane-1-carboxylic acid] the same measures were less than 3 nM and 50 to 200 nM.
On the same counts, the results for `CC(C)C1=C2[C@H]3CC[C@@H]4[C@@]5(C)CC[C@H](OC(=O)[C@H]6C[C@@H](C(=O)O)C6(C)C)C(C)(C)[C@@H]5CC[C@@]4(C)[C@]3(C)CC[C@@]2(NC(=O)C(C)(C)NC(=O)c2ccc3[nH]cnc3c2)CC1=O` [Example 12, (1R,3S)-3-((((3aR,5aR,5bR,7aR,9S,11aR,11bR,13aS)-3a-(2-(1H-benzo[d]imidazole-5-carboxamido)-2-methylpropanamido)-1-isopropyl-5a,5b,8,8,11a-pentamethyl-2-oxo-3,3a,4,5,5a,5b,6,7,7a,8,9,10,11,11a,11b,12,13,13a-octadecahydro-2H-cyclopenta[a]chrysen-9-yl)oxy)carbonyl)-2,2-dimethylcyclobutane-1-carboxylic acid] are less than 3 nM and 50 to 200 nM.
